# Measurements as given in patent US6054437A, “Method for inducing death of neoplastic cells using piperazine derivatives” (Hitachi Chemical Research Center, Inc., priority 1997, dated 2000).
# Where a name gives a salt, the structure may show the parent alone.
# Columns and labels:
# [1] = Acute toxicity test, i.v. (LD50); conditions: rat, in vivo, iv, rats
# From the text: This non-toxicity of the compounds makes it possible to administer the compounds to patients daily for a long period of time without interruption, without significant side effects, until the cancer tumors are suppressed. The non-toxicity, the apoptotic effects and the reversal of multidrug resistance of the compounds will change the procedures of conventional chemotherapy completely.
# KB-3 (sensitive) = test: Cell survival assay with vinblastine, sensitive cells; assay type: cell-based, human
# Method: where the effect of NCO-700 to enhance cancer cell killing by vinblastine was measured.
# In the first two in vitro assays, the drug accumulation assay and the cell survival assay, a human pharyngeal carcinoma cell line (KB-V-1) which is highly resistant to anticancer drugs was used. This cell line was developed by Drs. Ira Pastan and Michael Gottesman of the National Cancer Institute, by step-wise selection in colchicine of drug-resistant cells. The control cancer cell line (KB-3), from which the resistant cell lines were derived, is sensitive to anticancer drugs. The resistant KB-V-1 cell line is approximately 275 times more resistant to vinblastine than the sensitive KB-3 line and has a greatly amplified mdr gene which generates the observed resistance.
# The cell survival experiments shown above were performed by plating KB-3 (sensitive) and KB-V-1 (resistant) cells in 32 mm well plastic dishes at a cell density of 300-500 cells per well. Vinblastine and NCO-700 were added 16 hours after the initial cell plating. After 10 days of incubation at 37°, cell colonies were stained and counted.
# PC-3 (prostate) = test: Cancer cell survival assay, PC-3; assay type: cell-based, human; conditions: PC-3, seven days, alone
# Method: (§1) Cell survival was assayed in cultured tumor cells. From 500-1000 cells per well were plated in 24-welled culture dishes and exposed to drug for seven days. After drug exposure, a computerized cell imaging technique was utilized to ascertain the number of viable cells remaining in each culture. From the data, survival curves were plotted and a ED50 (drug concentration that permits 50% cell survival) were calculated.
# (§2) The cancer cell survival assay is an important additional in vitro assay to assess the anti-neoplastic activity of compounds as the cells are given a prolonged exposure (seven days) to the drug. FIGS. 9-16 show the effect of increasing the dose of NCO-700 on the survival of a number of cancer cell lines. […] In the figures, the vertical axis is the object area, which is the number of surviving cancer cells calculated by a computer.
# [2] = system: PC-3 (prostate tumor cell line); test: Apoptosis induced DNA fragmentation (agarose gel); assay type: cell-based, human; conditions: PC-3, 50 μM, 48 hours
# Method: PC-3, a prostate tumor cell line, was treated with 25 μM TOP-008, 50 μM NCO-700, or water for 48 hours. The DNA from each sample was purified by phenol extraction, and the fragmentation was resolved on an agarose gel.
# HL-60 (leukemia) = test: Cancer cell death assay (LDH release), leukemia line; assay type: cell-based, human; conditions: compound alone, 24 hours
# Method: (§3) FIG. 4 is a graph showing the relationship between LDH released and the concentration of NCO-700 in cancer cell death assays of human cancer cell lines MCF-7 (breast), HL-60 (leukemia), and HEP-129 (liver).
# (§4) 1. Cancer Cell Death Assay
# (§5) Cell death was measured quantitatively by the release of a marker intracellular enzyme, lactate dehydrogenase (LDH), from damaged or killed cells. LDH released into the extracellular fluid, was measured 24 hours after drug exposure to cancer cells and the enzyme activity was determined by the method of Decker et al. (J. Immunolog Methods 15:61-99, 1988).
# (§6) All cell lines used in the present study were obtained from the American Type Tissue Culture Laboratory and cultured according to their specifications. All were human cancer lines unless otherwise noted. The following cell lines and their tissue of origin used in our studies were:
# (§7) The first assays performed measured the anti-neoplastic activity of NCO-700, alone, in cell death assays of a wide variety of human cancer cells. The results of these experiments are shown in FIGS. 1-6, where a dose-response curve of NCO-700 versus % LDH release is plotted, with higher values of LDH released indicating greater anti-neoplastic activity (apoptosis).
# [3] = system: ovarian cancer cell lines SW-626 and AN-3-CA; test: Cancer cell death assay (LDH release), ovarian lines; assay type: cell-based, human; conditions: compound alone, 24 hours
# Method: FIG. 1 is a graph showing the relationship between LDH released and the concentration of NCO-700 in cancer cell death assays of human ovarian cancer cell lines SW-626 and AN-3-CA.
# as §4, §5, §6, §7
# T-47D (breast) = test: Cancer cell survival assay, T-47D; assay type: cell-based, human; conditions: seven days, alone
# Method: as §1, §2
# HEP-129 (liver) = test: Cancer cell death assay (LDH release), liver line; assay type: cell-based, human; conditions: compound alone, 24 hours
# Method: as §3, §4, §5, §6, §7
# kidney tumor cells = test: Human tumor biopsy assay, kidney tumor; assay type: cell-based; conditions: 20 μM NCO-700 and 0.5 mg/ml adriamycin, 1 hour
# Method: 4. Human Tumor Biopsy Assays
# where the effect of NCO-700 to enhance killing, by either vinblastine or adriamycin, of cancer cells cultured directly from patient's tumors (Von Hoff et al., Cancer Res. 43:1926-1931, 1983).
# For the tumor biopsy assay, primary cell cultures were propagated directly from tumor specimens removed from patients. The cells were grown in suspension culture, treated with adriamycin or vinblastine plus NCO-700, and plated onto soft agar and incubated for two weeks before cell survival was determined.
# In a final series of experiments, the effect of NCO-700 on survival of cells cultured directly from biopsied patient tumors was performed. This technique, referred to as a human tumor cloning system, was developed by Von Hoff and associates (Von Hoff et al., Cancer Res. 43:1926-1931, 1983) and was used clinically to predict the course of chemotherapy for these patients. In this method, tumor biopsies were separated into cell suspensions and treated for 1 hour with either 0.4 mg/ml vinblastine (VLB) or 0.5 mg/ml adriamycin (ADR) plus or minus 20 μM NCO-700. The cell suspensions were washed after one hour of incubation and plated with soft agar. After 14 days of incubation at 37°, the percent of colonies surviving was scored. […] In particular, the survival of tumor cells decreased to approximately 1/2 to 1/3 after exposure to NCO-700 and adriamycin. […]
compound,measurement,setting,value
"CCOC(=O)[C@@H]1O[C@H]1C(=O)N[C@@H](CC(C)C)C(=O)N1CCN(Cc2ccc(OC)c(OC)c2OC)CC1 [NCO-700, Bis[ethyl (2R,3R)-3-[(S)-3-methyl-1-[4-(2,3,4-trimethoxyphenylmethyl)piperazin-1-ylcarbonyl]butylcarbamoyl]oxirane-2-carboxylate] Sulfate]",LD50,[1],317 mg/kg
same,IC50,"KB-3 (sensitive); Homo sapiens, KB-3, + 25 μM NCO-700, read-out: vinblastine to kill 50% of cells",1.6 ng/mL
same,enhancement of killing by vinblastine,KB-3 (sensitive); sensitive KB-3 cells,slight enhancement of the killing of sensitive KB-3 cells
same,anti-neoplastic activity (cell survival),PC-3 (prostate),significant anti-neoplastic activity
same,DNA fragmentation,[2],significant DNA fragmentation
same,anti-neoplastic activity (LDH release),HL-60 (leukemia),did not respond
same,anti-neoplastic activity (LDH release),[3],partly responsive
same,anti-neoplastic activity (cell survival),T-47D (breast),significant anti-neoplastic activity
same,anti-neoplastic activity (LDH release),HEP-129 (liver),did not respond
same,survival of tumor cells decreased to (fraction),kidney tumor cells,approximately 1/4
